Our source for the TGI and GI50 values is PubChem BioAssay (NCI).

The structures appear in SMILES notation.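 Five compound concentrations were applied to cells in 96-well plates for 48 hours; endpoints were derived by simple linear interpolation of the resulting dose-response curve. GI50: concentration for 50% inhibition of growth. TGI: concentration producing complete growth inhibition.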

Holding throughout (assay): growth of human tumour cells (NCI), 48 h
The subject of experiment [1] is K-562 leukemia.
Experiment [2] has as its system DLD-1 colon.
For experiment [3], the system named is KM20L2 colon.
The subject of experiment [4] is MOLT-4 leukemia.
Experiment [5] deals with M19-MEL melanoma.
Experiment [6] has as its system LXFL 529 NSCLC.
The subject of experiment [7] is SNB-19 CNS.
Experiment [8] concerns SNB-78 CNS.
The subject of experiment [9] is T-47D breast.
Experiment [10] has as its system HS 578T breast.

For the compound `CCOC(=O)C1C(=O)C(=O)N2CCc3c([nH]c4ccccc34)C12` (configuration not stated), the TGI in [1], in [2], in [3], in [4], in experiment [5] and in [6] was > 100 µM in each case. For the same compound, the TGI in experiment [7] was > 100 µM.

`CN(C)c1ccc(/C=C2\Cc3ccccc3C2=O)cc1Br`: the TGI in [1] was > 100 µM; in experiment [2] it was > 100 µM; in [3], > 100 µM; in [8], > 100 µM; in experiment [4], 93.5 µM; in experiment [5], > 100 µM. Besides, the TGI in experiment [6] and in experiment [7] was > 100 µM in each case.

Take `COC(=O)N/N=C(\c1nc2ccc(Cl)cc2[nH]c1=O)C(O)c1ccc([N+](=O)[O-])cc1` (configuration not stated): the TGI in experiment [1], in experiment [2], in [3], in experiment [8], in experiment [4] and in experiment [5] was > 100 µM throughout. Besides, the TGI in [6] and in experiment [7] was > 100 µM in each case.

For `CN1C/C(=C\c2ccco2)c2nc(N)nc(-c3ccco3)c2C1`, the TGI in [1], in experiment [2], in experiment [3], in experiment [4], in experiment [5] and in experiment [6] was > 100 µM throughout. Also, in experiment [7], the TGI is > 100 µM.

For `CCc1c[nH]c2ncnc(N3CC[C@](N)(CNC(=O)c4ccc(F)cc4F)C3)c12`, the GI50 in experiment [1] is > 54.1 µM; in experiment [9], 0.203 µM; in [4], 0.439 µM; in experiment [10] it was 0.513 µM; in experiment [7], 2.04 µM. Besides, the TGI in experiment [1] is > 100 µM; in experiment [9], 11.1 µM; in [4] it was 46.2 µM; in experiment [10], 24.3 µM; in [7] it was > 100 µM.

`O=C(CO[N+](=O)[O-])OCC(=O)c1ccccc1`: the TGI in [1], in experiment [2], in experiment [3], in experiment [4], in experiment [5] and in [6] was > 100 µM throughout. In experiment [7], the TGI was > 100 µM.

Consider `CC(=O)Nc1ccc(C(=O)NN2C(=O)CSC2c2ccccc2)cc1` (configuration not stated), for which the TGI in [1], in experiment [9], in experiment [4], in experiment [10] and in experiment [7] was > 100 µM throughout.

Take `Cc1[nH]n(C(=O)c2ccc(Cl)cc2)c(=O)c1/C=C1\C(O)=CC(=O)c2ccccc21`: the TGI in experiment [1], in experiment [2], in [3], in experiment [8], in experiment [4] and in experiment [5] was > 100 µM throughout. Further, the TGI in experiment [6] and in experiment [7] was > 100 µM each time.

Turning to `CCCCc1c2c(nc3c1CC/C(=C\c1ccccc1)C3=O)CCCC2`, the TGI in experiment [1] turned out to be 32.3 µM; in experiment [2], 12.7 µM; in experiment [3] it was 12.7 µM; in experiment [8], 9.38 µM; in experiment [4] it was 11.7 µM; in [5], 16.9 µM. The TGI in experiment [6] worked out at 4.16 µM; in experiment [7] it was 12.6 µM.

Consider `CC(=O)Nc1ccc(C(=O)COc2cccc(/C=C3\CCc4ccccc4C3=O)c2)cc1`, for which the GI50 in experiment [1] was 2.8 µM; in [9], 11 µM; in experiment [4], 4.3 µM; in [10], 32.6 µM; in experiment [7] it was 17.4 µM. Also, the TGI is 12.7 µM in experiment [1]; 57.2 µM in experiment [9]; 20.9 µM in experiment [4]; > 100 µM in experiment [10]; 51.7 µM in experiment [7].

Regarding `O=C(Nc1cccc(C(F)(F)F)c1)Nc1ccc(OCc2nnc(-c3ccccc3)o2)c(F)c1`, the GI50 in [1] is 5.12 µM; in experiment [9] it was 2.44 µM; in experiment [4] it was 3.59 µM; in experiment [10] it was 2.5 µM; in experiment [7], 4.4 µM. For the same compound, the TGI in [1] stood at 47.2 µM; in experiment [9], 16.1 µM; in experiment [4], 39.8 µM; in [10], 14.7 µM; in experiment [7], 35.5 µM.

On to `CC(C)=NO.CC(C)=NO.CC(C)=NO.CC(C)=NO.[Ti]`, for which the GI50 in experiment [1], in experiment [2], in experiment [8], in experiment [4], in experiment [5] and in experiment [6] was > 100 µM in each case. In experiment [7], the GI50 is > 100 µM. The TGI in experiment [1], in [2], in experiment [8], in [4], in experiment [5] and in experiment [6] was > 100 µM throughout. In addition, in experiment [7], the TGI was > 100 µM.

For the compound `CCNC(=O)O/N=C1/C=C2CC[C@@H]3C(CC[C@@]4(C)C3CC[C@@H]4OC(=O)NCC)[C@@]2(C)CC1` (some centres not stated), the TGI in [1] is 12.7 µM; in experiment [2], > 100 µM; in experiment [3], 5.15 µM; in [8], 9.3 µM; in [4], 5.44 µM; in [5], 10.3 µM. The values for the TGI in experiment [6] and in [7] were 3.4 µM and 8.21 µM, respectively.

`N#Cc1c(N/N=C/c2c(Cl)cccc2Cl)nc(N)nc1N1CCCC1`: the GI50 in experiment [1] was 2.87 µM; in experiment [9], > 100 µM; in [4] it was 2.88 µM; in experiment [10], 3.05 µM; in experiment [7], 7.14 µM. The TGI in [1] was 6.75 µM; in experiment [9] it was > 100 µM; in [4], 18.3 µM; in experiment [10], > 100 µM; in [7], > 100 µM.

Regarding `CC1=C(C(=O)OC(C)(C)C)C(c2ccc([N+](=O)[O-])cc2)C(C(=O)OC(C)(C)C)=C(C)N1`, the TGI in experiment [1] was 54 µM; in experiment [9] it was 33.4 µM; in [4] it was 41.6 µM; in experiment [10], 43.4 µM; in [7], 75.8 µM.

Turning to `O=C(/C=C/N1CCN(c2cccc(Cl)c2)CC1)c1ccc(Cl)cc1`, the GI50 was 28 µM in experiment [1]; 51.2 µM in [9]; 33.5 µM in experiment [4]; 26.9 µM in [10]; 64.9 µM in experiment [7]. The TGI was > 100 µM in [1]; > 100 µM in experiment [9]; > 100 µM in [4]; 69.6 µM in experiment [10]; > 100 µM in [7].

For the compound `COc1cc(-c2nn(-c3cccc(NC(=O)c4cccc(C(F)(F)F)c4)c3)cc2-c2ccncc2)ccc1Cl`, the GI50 in experiment [1] was 1.4 µM; in [9], 2.55 µM; in [4], 2.01 µM; in experiment [10] it was 1.07 µM; in [7], 2.46 µM. Also, the TGI in experiment [1], in [9], in experiment [4], in experiment [10] and in experiment [7] was > 50 µM throughout.

Take `Cc1c(-c2ccc(N3CCc4cccc(C(=O)Nc5nc6ccccc6s5)c4C3)nc2C(=O)O)cnn1CC12CC3CC(CC(C3)C1)C2`: the GI50 in experiment [1] was 7.51 µM; in experiment [9], 6.59 µM; in experiment [4], < 0.01 µM; in [10], 3.77 µM; in experiment [7], 4.37 µM. The TGI in experiment [1] is > 100 µM; in experiment [9] it was 30.7 µM; in experiment [10], 38.4 µM; in [7], 19.6 µM.

On to `O=C(c1ccccc1)c1ccc(N2C(=O)C3C4c5ccccc5C(/C=C/C(=O)c5ccccn5)(c5ccccc54)C3C2=O)cc1` (configuration not stated), for which the GI50 was 1.77 µM in experiment [1]; 2.75 µM in experiment [9]; 2.29 µM in experiment [4]; 2.98 µM in experiment [10]; 3.72 µM in [7]. Besides, the TGI in experiment [1], in experiment [9], in experiment [4], in experiment [10] and in experiment [7] was > 100 µM each time.

`CCC(=C(c1ccc(OCCN(CC)CC)cc1)c1ccc(OCCN(CC)CC)cc1)c1ccc(Cl)cc1`: the GI50 was 0.156 µM in experiment [1]; 0.574 µM in [9]; 0.583 µM in experiment [4]; 0.668 µM in experiment [10]; 0.584 µM in experiment [7]. Also, the TGI is 0.898 µM in experiment [1]; 1.39 µM in experiment [9]; 1.3 µM in experiment [4]; 1.57 µM in experiment [10]; 1.09 µM in experiment [7].

For the compound `O=C(O)C12C3C4C1C1C2C3C41I` (configuration not stated), the TGI in experiment [1], in experiment [2], in [3], in experiment [8], in experiment [4] and in experiment [5] was > 100 µM in each case. Moreover, the TGI in [6] and in [7] was > 100 µM each time.

On to `O=C1OC(c2ccccc2)=N/C1=C\c1ccc(N(CCCl)CCCl)cc1`, for which the TGI is > 100 µM in experiment [1]; > 84.8 µM in experiment [9]; > 79.9 µM in [4]; > 100 µM in experiment [10]; > 100 µM in experiment [7].
